Earlier results in patent US20140363510A1, “PHARMACEUTICAL COMPOSITION INCLUDING PIMOBENDAN” (BOEHRINGER INGELHEIM VETMEDICA GMBH, priority 2004, published 2014).

In the case of `COc1ccc(-c2nc3ccc(C4=NNC(=O)CC4C)cc3[nH]2)cc1` (centres unmarked) [Pimobendan, 4,5-dihydro-6-[2-(4-methoxyphenyl)-1H-benzimidazol-5-yl]-5-methyl-3(2H)-pyridazone], the “solubility in aqueous media” value (aqueous media, pH-dependent) is given as “low solubility in aqueous media and a very highly pH-dependent solubility” and the solubility in water (water) is given as “hardly dissolves in water”.
